Assay results taken from US20030118627A1 (DABUR RESEARCH FOUNDATION, priority 2001, published 2003).

How the values were obtained:
MOLT 4 = assay: MTT cytotoxicity assay, MOLT 4 leukemia; assay type: cell-based; details: Homo sapiens
Description: (§1) Briefly, a […] MTT cytotoxicity assay was performed, which is based on the principle of uptake of MTT (3-(4,5-dimethylthiazol-2-yl)-2,5-diphenyl tetrazolium bromide), a tetrazolium salt, by the metabolically active cells where it is metabolized by active mitochondria into a blue colored formazan product that is read spectrophoto-metrically. MTT was dissolved in phosphate buffered saline with a pH of 7.4 to obtain an MTT concentration of 5 mg/ml; the resulting mixture was filtered through a 0.22 micron filter to sterilize and remove a small amount of insoluble residue. For each type of tumor cell, 20,000 to 50,000 cells were seeded in a 96-well culture plate and incubated with the combination in a CO2 incubator for 24 hours. […] The assay was terminated after 24 hours by adding 100 ug (20 ul) of MTT to each well, then incubating for additional one hour, and finally adding 50 ul of 10% SDS-0.01N HCl to each well to lyse the cells and dissolve formazan. After incubating for one hour, the plate was read spectrophotometrically at 540 nm and the percentage cytotoxicity calculated.

L132 = assay: MTT cytotoxicity assay, L132 lung; assay type: cell-based; details: Homo sapiens
Description: as §1

293 = assay: MTT cytotoxicity assay, 293 kidney; assay type: cell-based; details: Homo sapiens, HEK293, 24 h, read-out: ED50 values of cytotoxicity
Description: as §1

Hep2 = assay: MTT cytotoxicity assay, Hep2 larynx; assay type: cell-based; details: Homo sapiens, HEp-2, 24 h, read-out: ED50 values of cytotoxicity
Description: as §1

PTC = assay: MTT cytotoxicity assay, PTC colon; assay type: cell-based; details: Homo sapiens
Description: as §1

KB = assay: MTT cytotoxicity assay, KB oral; assay type: cell-based; details: Homo sapiens, 24 h, read-out: ED50 values of cytotoxicity
Description: as §1

MCF7 = assay: MTT cytotoxicity assay, MCF7 breast; assay type: cell-based; details: Homo sapiens
Description: as §1

PA 1 = assay: MTT cytotoxicity assay, PA 1 ovary; assay type: cell-based; details: Homo sapiens
Description: as §1

U87MG = assay: MTT cytotoxicity assay, U87MG glioblastoma; assay type: cell-based; details: Homo sapiens, U-87 MG, 24 h, read-out: ED50 values of cytotoxicity
Description: as §1

Miapaca2 = assay: MTT cytotoxicity assay, Miapaca2 pancreas; assay type: cell-based; details: Homo sapiens
Description: as §1

Swiss albino mice = details: both, mouse, in vivo, po, 15 days
Description: Acute toxicity studies were performed using the oral route of administration.
A batch of 5 female and 5 male mice each was administered the test substance by oral route. […] Another batch of 5 female and 5 male served as control.
Observations were made three times on the day of dosing and twice daily thereafter for the remainder of 14 days or until reversible toxic signs or symptoms subsided. All gross visible toxic signs and symptoms were recorded. Body weights were recorded prior to dosing and weekly thereafter.

INT 407 = assay: MTT cytotoxicity assay, INT 407 intestine; assay type: cell-based; details: Homo sapiens, 24 h, read-out: ED50 values of cytotoxicity
Description: as §1

DU145 = assay: MTT cytotoxicity assay, DU145 prostate; assay type: cell-based; details: Homo sapiens
Description: as §1

[1] = 1.0 mM, read-out: Percent cytotoxicity
[2] = 2.5 mM, read-out: Percent cytotoxicity
[3] = 4 mM, read-out: Percent cytotoxicity
[4] = 5 mM, read-out: Percent cytotoxicity
[5] = 10 mM, read-out: Percent cytotoxicity
[6] = 24 h, read-out: ED50 values of cytotoxicity

SMILES: CCCCOC(=O)C1CCC(=O)N1C(O)C(C)=O (centres unmarked) [MGC-2, N-(1-hydroxy-2-ketopropyl)-butylpyroglutamate]
- IC50 (MOLT 4; 24 h, Molt 4 Leukemia, read-out: ED50 values of cytotoxicity): < 1 mM
- cytotoxicity at 1000 µM (MOLT 4; MOLT 4 Leukemia, 1.0 mM, read-out: Percent cytotoxicity): 75.9%
- cytotoxicity at 2500 µM (MOLT 4; MOLT 4 Leukemia, 2.5 mM, read-out: Percent cytotoxicity): 85.9 ± 6.3%
- cytotoxicity at 4000 µM (MOLT 4; MOLT 4 Leukemia, 4 mM, read-out: Percent cytotoxicity): 87.8 ± 5%
- cytotoxicity at 5000 µM (MOLT 4; MOLT 4 Leukemia, 5 mM, read-out: Percent cytotoxicity): 88.2 ± 5.9%
- cytotoxicity at 10000 µM (MOLT 4; MOLT 4 Leukemia, 10 mM, read-out: Percent cytotoxicity): 90.2 ± 7.2%
- cytotoxicity at 1000 µM (L132; [1]): 34.8%
- cytotoxicity at 2500 µM (L132; [2]): 58.5 ± 3.6%
- cytotoxicity at 4000 µM (L132; [3]): 62.9 ± 2.9%
- cytotoxicity at 5000 µM (L132; [4]): 87.8 ± 5.8%
- cytotoxicity at 10000 µM (L132; [5]): 88.6 ± 3%
- IC50 (L132; [6]): 1.9 ± 0.8 mM
- IC50 293: 2 ± 0.8 mM
- IC50 (Hep2): 2 ± 0.3 mM
- cytotoxicity at 1000 µM (PTC; [1]): 45.8%
- cytotoxicity at 2500 µM (PTC; [2]): 68.9 ± 5.3%
- cytotoxicity at 4000 µM (PTC; [3]): 85.9 ± 6.2%
- cytotoxicity at 5000 µM (PTC; [4]): 88.8 ± 5.3%
- cytotoxicity at 10000 µM (PTC; [5]): 86.9 ± 5%
- IC50 (PTC; [6]): 1.6 ± 0.1 mM
- IC50 (KB): 2.6 ± 0.5 mM
- IC50 (MCF7; MCF7, 24 h, MCF 7 Breast, read-out: ED50 values of cytotoxicity): 2.5 ± 0.4 mM
- cytotoxicity at 1000 µM (MCF7; MCF7 breast, 1.0 mM, read-out: Percent cytotoxicity): 34.7%
- cytotoxicity at 2500 µM (MCF7; MCF7 breast, 2.5 mM, read-out: Percent cytotoxicity): 50.6 ± 4.1%
- cytotoxicity at 4000 µM (MCF7; MCF7 breast, 4 mM, read-out: Percent cytotoxicity): 57.9 ± 4.8%
- cytotoxicity at 5000 µM (MCF7; MCF7 breast, 5 mM, read-out: Percent cytotoxicity): 67.9 ± 4%
- cytotoxicity at 10000 µM (MCF7; MCF7 breast, 10 mM, read-out: Percent cytotoxicity): 78.9 ± 5.2%
- IC50 (PA 1; 24 h, PA 1 Ovarian, read-out: ED50 values of cytotoxicity): 1.2 ± 0.2 mM
- cytotoxicity at 2500 µM (PA 1; PA 1 Ovary, 2.5 mM, read-out: Percent cytotoxicity): 57.9 ± 4.5%
- cytotoxicity at 4000 µM (PA 1; PA 1 Ovary, 4 mM, read-out: Percent cytotoxicity): 67.9 ± 5.4%
- cytotoxicity at 5000 µM (PA 1; PA 1 Ovary, 5 mM, read-out: Percent cytotoxicity): 84.9 ± 4.8%
- cytotoxicity at 10000 µM (PA 1; PA 1 Ovary, 10 mM, read-out: Percent cytotoxicity): 87.9 ± 6.3%
- IC50 (U87MG): 3.15 ± 1.1 mM
- cytotoxicity at 1000 µM (Miapaca2; MIA PaCa-2, 1.0 mM, read-out: Percent cytotoxicity): 34.8%
- cytotoxicity at 2500 µM (Miapaca2; MIA PaCa-2, 2.5 mM, read-out: Percent cytotoxicity): 64.9 ± 5.9%
- cytotoxicity at 4000 µM (Miapaca2; MIA PaCa-2, 4 mM, read-out: Percent cytotoxicity): 74.9 ± 3.8%
- cytotoxicity at 5000 µM (Miapaca2; MIA PaCa-2, 5 mM, read-out: Percent cytotoxicity): 76.9 ± 4%
- cytotoxicity at 10000 µM (Miapaca2; MIA PaCa-2, 10 mM, read-out: Percent cytotoxicity): 84.9 ± 6.3%
- IC50 (Miapaca2; MIA PaCa-2, 24 h, read-out: ED50 values of cytotoxicity): 1.7 ± 0.6 mM
- safe dose (Swiss albino mice): 75 mg
- IC50 (INT 407): 2.7 ± 0.8 mM
- cytotoxicity at 1000 µM (DU145; DU-145, 1.0 mM, read-out: Percent cytotoxicity): 43.9%
- cytotoxicity at 2500 µM (DU145; DU-145, 2.5 mM, read-out: Percent cytotoxicity): 53.9 ± 3.8%
- cytotoxicity at 4000 µM (DU145; DU-145, 4 mM, read-out: Percent cytotoxicity): 58.9 ± 4.3%
- cytotoxicity at 5000 µM (DU145; DU-145, 5 mM, read-out: Percent cytotoxicity): 67.9 ± 5.2%
- cytotoxicity at 10000 µM (DU145; DU-145, 10 mM, read-out: Percent cytotoxicity): 86.9 ± 6.9%
- IC50 (DU145; DU-145, 24 h, read-out: ED50 values of cytotoxicity): 1.6 ± 0.1 mM
